The IC50 is the concentration that inhibits the measured activity by half.

Results on 15 compounds are retold here after US9999622B2, “Pyrazolothiazole compound and medicine comprising same” (NIPPON SHINYAKU CO., LTD., priority 2014, dated 2018).

Assay type in all cases: biochemical
One assay concerns the target T1, JAK2 (Homo sapiens, UniProt O60674).
T1 construct: purchased Carna Biosciences, Inc
Put plainly: JAK tyrosine kinase inhibitory activity in the presence of 1 mM ATP (ELISA), JAK2. On the procedure:
(§1) 1. Preparation of Test Compound
(§2) The test compound was dissolved in dimethyl sulfoxide (DMSO) to 10 mM and further diluted with DMSO to the concentrations of 1000, 100, 10, 1, 0.1 and 0.01 μM, respectively. For JAK1, these solutions of the test compound at the six concentrations 10 mM, 1000 μM, 100 μM, 10 μM, 1 μM and 0.1 μM were used. For JAK2 and JAK3, these solutions of the test compound at the six concentrations 1000 μM, 100 μM, 10 μM, 1 μM, 0.1 μM and 0.01 μM were used. The test compound solutions were diluted further to 20-fold with an assay buffer to obtain a sample solution. 15 mM Tris-HCl (pH7.5), 0.01 (v/v) % Tween-20 and 1 mM dithiothreitol were used as an assay buffer. DMSO was diluted to 20-fold with the assay buffer and was used as a negative control.
(§3) 2. JAK Tyrosine Kinase Inhibitory Activity in the Presence of 1 mM Atp
(§4) The activity was determined by ELISA method. Each of the sample solutions was added to a streptavidine coated 96-well plate (DELFIA Strip Plate 8×12 well, PerkinElmer) at 10 μL/well (n=2). […] Finally, JAK tyrosine kinase (Carna Biosciences, Inc.), which was previously diluted with the assay buffer to 7.5 nM for JAK1 and 0.75 nM for JAK2 and JAK3, was added to the plate at 20 μL/well, and the plate was incubated at 30° C. for 1 h. The plate was washed four times with buffer (50 mM Tris-HCl (pH 7.5), 150 mM NaCl, 0.02 (v/v) % Tween-20). A blocking buffer (0.1% Bovine Serum Albumin, 50 mM Tris-HCl (pH 7.5), 150 mM NaCl, 0.02 (v/v) % Tween-20) was added to the plate at 150 μL/well and the plate was blocked at 30° C. for 1 h. The blocking buffer was removed, and a horse radish peroxidase-labeled anti-phosphorylated tyrosine antibody (BD Biosciences, Inc.) (diluted to 10000-fold with the blocking buffer) was added to the plate at 100 μL/well, and the plate was incubated at 30° C. for 30 min. The plate was washed with the washing buffer four times, and 3,3′,5,5′-tetramethylbenizidine solution (Nacalai Tesque) was added to the plate at 100 μL/well to develop the color for 10 minutes. To the plate was added 0.1 M sulfuric acid at 100 μL/well to stop the reaction. The absorbance at 450 nm was measured using a microplate reader (BIO-RAD).
(§5) 3. Analysis of the Results
A general note: ELISA stands for enzyme-linked immunosorbent assay.

The next assay addresses T2, JAK1 (Homo sapiens, UniProt P23458).
T2 construct: purchased Carna Biosciences, Inc
The experiment in a line: JAK tyrosine kinase inhibitory activity in the presence of 1 mM ATP (ELISA), JAK1. On the procedure: as §1, §2, §3, §4, §5

The target of a further assay is T3, JAK3 (Homo sapiens, UniProt P52333).
T3 construct: purchased Carna Biosciences, Inc
T3 sequence (P52333 1-1124): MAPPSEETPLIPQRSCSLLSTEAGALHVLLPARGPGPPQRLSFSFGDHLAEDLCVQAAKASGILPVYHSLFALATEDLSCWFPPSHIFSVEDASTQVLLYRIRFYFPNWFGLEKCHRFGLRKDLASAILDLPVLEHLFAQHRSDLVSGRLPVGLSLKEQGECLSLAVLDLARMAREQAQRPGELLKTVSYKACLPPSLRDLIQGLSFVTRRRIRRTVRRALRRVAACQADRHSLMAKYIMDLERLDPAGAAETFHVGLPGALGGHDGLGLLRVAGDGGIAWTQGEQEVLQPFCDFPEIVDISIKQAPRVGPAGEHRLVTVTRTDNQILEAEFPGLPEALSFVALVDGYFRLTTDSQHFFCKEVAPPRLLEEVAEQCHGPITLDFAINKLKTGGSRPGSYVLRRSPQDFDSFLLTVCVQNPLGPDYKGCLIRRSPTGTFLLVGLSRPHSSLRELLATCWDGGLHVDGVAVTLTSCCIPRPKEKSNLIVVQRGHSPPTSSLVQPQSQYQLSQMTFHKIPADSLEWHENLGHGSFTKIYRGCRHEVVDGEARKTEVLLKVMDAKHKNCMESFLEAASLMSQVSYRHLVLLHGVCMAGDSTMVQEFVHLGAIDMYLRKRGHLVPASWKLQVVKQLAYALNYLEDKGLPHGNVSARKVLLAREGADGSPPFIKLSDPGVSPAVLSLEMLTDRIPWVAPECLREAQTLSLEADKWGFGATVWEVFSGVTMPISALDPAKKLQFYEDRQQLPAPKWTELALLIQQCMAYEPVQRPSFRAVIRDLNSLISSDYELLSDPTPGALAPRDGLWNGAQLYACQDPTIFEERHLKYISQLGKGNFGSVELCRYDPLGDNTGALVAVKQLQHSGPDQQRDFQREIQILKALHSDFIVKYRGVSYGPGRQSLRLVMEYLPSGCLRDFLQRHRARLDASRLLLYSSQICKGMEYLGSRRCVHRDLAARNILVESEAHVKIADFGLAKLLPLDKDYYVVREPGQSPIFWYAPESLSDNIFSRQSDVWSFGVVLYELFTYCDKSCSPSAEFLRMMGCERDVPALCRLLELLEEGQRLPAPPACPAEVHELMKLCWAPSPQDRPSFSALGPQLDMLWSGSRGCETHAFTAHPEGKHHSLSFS
The experiment in a line: JAK tyrosine kinase inhibitory activity in the presence of 1 mM ATP (ELISA), JAK3. The method, then:
as §1, §2, §3, §4, §5

Some results are limits rather than exact numbers.

T2 sequence (P23458 whole entry): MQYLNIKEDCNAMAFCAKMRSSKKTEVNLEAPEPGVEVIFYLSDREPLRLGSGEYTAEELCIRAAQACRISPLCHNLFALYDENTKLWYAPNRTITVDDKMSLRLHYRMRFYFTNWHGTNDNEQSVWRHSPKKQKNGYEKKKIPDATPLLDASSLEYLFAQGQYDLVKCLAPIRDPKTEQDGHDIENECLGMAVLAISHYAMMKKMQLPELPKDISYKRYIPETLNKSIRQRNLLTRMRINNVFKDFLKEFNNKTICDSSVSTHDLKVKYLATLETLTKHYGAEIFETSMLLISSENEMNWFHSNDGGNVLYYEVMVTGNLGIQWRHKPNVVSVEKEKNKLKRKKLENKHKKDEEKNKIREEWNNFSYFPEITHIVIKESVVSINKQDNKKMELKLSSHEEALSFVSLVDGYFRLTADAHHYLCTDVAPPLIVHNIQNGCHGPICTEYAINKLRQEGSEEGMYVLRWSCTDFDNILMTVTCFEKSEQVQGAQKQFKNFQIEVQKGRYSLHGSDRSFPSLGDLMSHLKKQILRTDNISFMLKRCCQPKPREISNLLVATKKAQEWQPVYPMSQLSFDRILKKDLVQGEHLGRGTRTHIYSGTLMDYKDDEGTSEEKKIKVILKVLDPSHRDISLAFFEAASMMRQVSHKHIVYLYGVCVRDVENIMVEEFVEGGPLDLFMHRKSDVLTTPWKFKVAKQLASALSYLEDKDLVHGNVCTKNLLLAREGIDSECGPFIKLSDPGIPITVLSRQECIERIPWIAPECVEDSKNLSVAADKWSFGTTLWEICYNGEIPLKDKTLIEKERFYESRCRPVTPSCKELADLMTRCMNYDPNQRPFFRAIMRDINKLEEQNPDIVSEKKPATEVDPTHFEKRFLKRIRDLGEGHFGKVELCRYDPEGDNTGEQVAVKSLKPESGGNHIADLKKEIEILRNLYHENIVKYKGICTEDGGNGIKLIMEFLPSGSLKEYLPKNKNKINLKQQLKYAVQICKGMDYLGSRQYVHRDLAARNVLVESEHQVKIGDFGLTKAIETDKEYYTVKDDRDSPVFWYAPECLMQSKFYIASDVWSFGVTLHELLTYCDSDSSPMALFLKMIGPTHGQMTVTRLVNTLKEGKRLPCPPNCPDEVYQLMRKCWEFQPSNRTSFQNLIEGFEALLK
T1 sequence (O60674 whole entry): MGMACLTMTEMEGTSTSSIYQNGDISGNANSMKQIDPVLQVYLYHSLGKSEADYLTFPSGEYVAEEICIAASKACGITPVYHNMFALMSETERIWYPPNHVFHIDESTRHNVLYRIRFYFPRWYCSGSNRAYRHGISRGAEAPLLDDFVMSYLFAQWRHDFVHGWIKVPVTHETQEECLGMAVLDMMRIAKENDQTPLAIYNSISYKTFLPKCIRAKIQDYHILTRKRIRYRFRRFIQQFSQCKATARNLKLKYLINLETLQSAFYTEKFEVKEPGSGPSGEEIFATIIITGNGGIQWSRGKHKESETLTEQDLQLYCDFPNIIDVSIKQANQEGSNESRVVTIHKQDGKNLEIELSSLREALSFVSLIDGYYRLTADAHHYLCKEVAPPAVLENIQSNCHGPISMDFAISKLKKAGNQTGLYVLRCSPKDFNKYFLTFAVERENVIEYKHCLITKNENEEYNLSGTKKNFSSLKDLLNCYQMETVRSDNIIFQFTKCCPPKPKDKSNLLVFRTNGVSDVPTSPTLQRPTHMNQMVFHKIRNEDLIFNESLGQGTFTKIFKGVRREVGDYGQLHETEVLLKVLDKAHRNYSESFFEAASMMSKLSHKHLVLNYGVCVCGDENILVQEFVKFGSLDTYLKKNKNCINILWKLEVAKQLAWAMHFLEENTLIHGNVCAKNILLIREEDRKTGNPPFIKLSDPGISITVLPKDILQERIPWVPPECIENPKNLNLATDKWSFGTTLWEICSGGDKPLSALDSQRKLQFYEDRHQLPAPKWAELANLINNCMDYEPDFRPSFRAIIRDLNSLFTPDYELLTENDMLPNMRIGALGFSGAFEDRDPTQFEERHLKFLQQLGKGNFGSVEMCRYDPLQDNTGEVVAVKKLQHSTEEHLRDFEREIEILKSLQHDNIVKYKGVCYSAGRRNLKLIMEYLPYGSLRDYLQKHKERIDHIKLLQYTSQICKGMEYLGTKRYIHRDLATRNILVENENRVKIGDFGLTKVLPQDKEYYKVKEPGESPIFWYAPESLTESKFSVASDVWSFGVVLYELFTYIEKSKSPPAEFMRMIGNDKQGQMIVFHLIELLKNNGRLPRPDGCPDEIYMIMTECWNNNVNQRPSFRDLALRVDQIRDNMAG

For the compound `CC(Oc1cc(C(=O)N2CCC(NC(=O)C3CC3)CC2)nc(-c2cnn3ccsc23)n1)C(C)(C)C` (stereo not drawn) [Example 44, N-[1-({6-[(3,3-Dimethylbutan 2 yl)oxy]-2-(pyrazolo[5,1-b][1,3]thiazol-7-yl)pyrimidin-4-yl}carbonyl)piperidin-4-yl]cyclopropanecarboxamide], the IC50 on JAK2 was 1300 nM; on JAK1, 66 nM; on JAK3, more than 10000 nM.

In the case of `O=C(NC1CCN(C(=O)c2cc(OC3CCC3)nc(-c3cnn4ccsc34)n2)CC1)C1CC1` [Example 45, N-(1-{[6-(Cyclobutyloxy)-2-(pyrazolo[5,1-b][1,3]thiazol-7-yl)pyrimidin-4-yl]carbonyl}piperidin-4-yl)cyclopropanecarboxamide], the IC50 is 5700 nM on JAK2, 310 nM at JAK1 and more than 10000 nM at JAK3.

Consider `C[C@@H](Nc1cc(C(=O)N2CCC(NC(=O)C3CC3)CC2)nc(-c2cnn3ccsc23)n1)C1CC1` [Example 46, N-(1-{[6-{[(1R)-1-Cyclopropylethyl]amino}-2-(pyrazolo[5,1-b][1,3]thiazol-7-yl)pyrimidin-4-yl]carbonyl}piperidin-4-yl)cyclopropanecarboxamide], for which the figures for the half-inhibitory concentration (IC50) at JAK2, on JAK1 and at JAK3 were 1600 nM, 170 nM and 7200 nM, respectively.

With `CC(C)(CO)Nc1cc(C(=O)N2CCC(NC(=O)C3CC3)CC2)nc(-c2cnn3ccsc23)n1` [Example 48, N-[1-({6-[(1-Hydroxy-2-methylpropan-2-yl)amino]-2-(pyrazolo[5,1-b][1,3]thiazol-7-yl)pyrimidin-4-yl}carbonyl)piperidin-4-yl]cyclopropanecarboxamide], the IC50 on JAK2 was more than 10000 nM; on JAK1 it was 150 nM; at JAK3, more than 10000 nM.

On to `C[C@H](Nc1cc(C(=O)N2CCC(Nc3nccs3)CC2)nc(-c2cnn3ccsc23)n1)C1CC1` [Example 50, [6-{[(1S)-1-Cyclopropylethyl]amino}-2-(pyrazolo[5,1-b][1,3]thiazol-7-yl)pyrimidin-4-yl][4-(1,3-thiazol-2-ylamino)piperidin-1-yl]methanone], for which the IC50 at JAK2 stood at 2000 nM; at JAK1 it was 150 nM; on JAK3, 2500 nM.

Take `COc1ccc([C@@H](C)Nc2cc(C(=O)N3CCC(NC(=O)C4CC4)CC3)nc(-c3cnn4ccsc34)n2)cc1` [Example 52, N-(1-{[6-{[(1R)-1-(4-Methoxyphenyl)ethyl]amino}-2-(pyrazolo[5,1-b][1,3]thiazol-7-yl)pyrimidin-4-yl]carbonyl}piperidin-4-yl)cyclopropanecarboxamide]: the IC50 at JAK2 was 9300 nM; at JAK1 it was 180 nM; on JAK3 it was more than 10000 nM.

`CC(C)(C)[C@@H](CO)Nc1cc(C(=O)N2CCC(NC(=O)C3CC3)CC2)nc(-c2cnn3ccsc23)n1` [Example 55, N-(1-{[6-{[(2S)-1-Hydroxy-3,3-dimethylbutan-2-yl]amino}-2-(pyrazolo[5,1-b][1,3]thiazol-7-yl)pyrimidin-4-yl]carbonyl}piperidin-4-yl)cyclopropanecarboxamide]: the IC50 is more than 10000 nM on JAK2, 140 nM at JAK1 and more than 10000 nM on JAK3.

Take `COc1ccc([C@@H](C)Nc2cc(C(=O)N3CCC(O)CC3)nc(-c3cnn4ccsc34)n2)cc1` [Example 56, (4-Hydroxypiperidin-1-yl) [6-{[(1R)-1-(4-methoxyphenyl)ethyl]amino}-2-(pyrazolo[5,1-b][1,3]thiazol-7-yl)pyrimidin-4-yl]methanone]: the IC50 was 7300 nM on JAK2, 940 nM on JAK1 and more than 10000 nM on JAK3.

Regarding `COC(=O)NC1CCN(C(=O)c2cc(NC(C)(C)C)nc(-c3cnn4ccsc34)n2)CC1` [Example 59, Methyl (1-{[6-(tert-butylamino)-2-(pyrazolo[5,1-b][1,3]thiazol-7-yl)pyrimidin-4-yl]carbonyl}piperidin-4-yl)carbamate], the results for the IC50 at JAK2, on JAK1 and on JAK3 were 3900 nM, 140 nM and 5600 nM, respectively.

In the case of `CC(C)OC(=O)NC1CCN(C(=O)c2cc(NC(C)(C)C)nc(-c3cnn4ccsc34)n2)CC1` [Example 60, Propan-2-yl (1-{[6-(tert-butylamino)-2-(pyrazolo[5,1-b][1,3]thiazol-7-yl)pyrimidin-4-yl]carbonyl}piperidin-4-yl)carbamate], the results for the IC50 at JAK2, on JAK1 and at JAK3 were 5400 nM, 72 nM and 6100 nM, respectively.

`COC(=O)NC1CCN(C(=O)c2cc(NC(C)(C)CO)nc(-c3cnn4ccsc34)n2)CC1` [Example 61, Methyl [1-({6-[(l-hydroxy-2-methylpropan-2-yl)amino]-2-(pyrazolo[5,1-b][1, 3]thiazol-7-yl)pyrimidin-4-yl}carbonyl)piperidin-4-yl]carbamate]: the concentration for half-maximal inhibition (IC50) at JAK2 was more than 10000 nM; at JAK1 it was 540 nM; at JAK3 it was 9400 nM.

With `COC(=O)NC1CCN(C(=O)c2cc(OC(C)C(C)(C)C)nc(-c3cnn4ccsc34)n2)CC1` (stereo not drawn) [Example 64, Methyl [1-({6-[(3,3-dimethylbutan-2-yl)oxy]-2-(pyrazolo[5,1-b][1,3]thiazol-7-yl)pyrimidin-4-yl}carbonyl)piperidin-4-yl]carbamate], the IC50 is 3100 nM at JAK2, 260 nM at JAK1 and more than 10000 nM on JAK3.

In the case of `C[C@H](Nc1cc(C(=O)N2CCC(NS(C)(=O)=O)CC2)nc(-c2cnn3ccsc23)n1)C1CC1` [Example 66, N-(1-{[6-{[(1S)-1-Cyclopropylethyl]amino}-2-(pyrazolo[5,1-b][1,3]thiazol-7-yl)pyrimidin-4-yl]carbonyl}piperidin-4-yl)methanesulfonamide], the figures for the IC50 at JAK2, on JAK1 and on JAK3 were 620 nM, 110 nM and 2400 nM, respectively.

For the compound `C[C@H](Nc1cc(C(=O)N2CCC(NS(=O)(=O)C3CC3)CC2)nc(-c2cnn3ccsc23)n1)C1CC1` [Example 67, N-(1-{[6-{[(1S)-1-Cyclopropylethyl]amino}-2-(pyrazolo[5,1-b][1,3]thiazol-7-yl)pyrimidin-4-yl]carbonyl}piperidin-4-yl)cyclopropanesulfonamide], the half-maximal inhibitory concentration (IC50) on JAK2 was 680 nM; on JAK1, 25 nM; at JAK3, 1900 nM.

As to `CCS(=O)(=O)NC1CCN(C(=O)c2cc(N[C@@H](C)C3CC3)nc(-c3cnn4ccsc34)n2)CC1` [Example 68, N-(1-{[6-{[(1S)-1-Cyclopropylethyl]amino}-2-(pyrazolo[5,1-b][1,3]thiazol-7-yl)pyrimidin-4-yl]carbonyl}piperidin-4-yl)ethanesulfonamide], the figures for the IC50 on JAK2, on JAK1 and on JAK3 were 790 nM, 73 nM and 2100 nM, respectively.
